Paper PMC10568017, “A quest for the stereo-electronic requirements for selective agonism for the neurotrophin receptors TrkA and TrkB in 17-spirocyclic-dehydroepiandrosterone derivatives” (Frontiers in Molecular Neuroscience, 2023)

Experiments:
PC12 cells = assay: CellTox assay, survival of PC12 cells under serum deprivation; type: cell-based; conditions: compound 500 nM, 24 h, after 4 h serum starvation; NGF 100 ng/mL as control (Figure 9)
[1] = tested on: NIH-3T3 TrkB-expressing cell line; assay: CellTox Green cytotoxicity assay in NIH-3T3 cells stable transfected with TrkB under serum deprivation; type: cell-based; conditions: compound 1 μM, 24 h, after 24 h serum starvation; BDNF 500 ng/mL as control
Procedure, shortened: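 TrkB-transfected NIH-3T3 cells were serum-starved for 24 h, then exposed 24 h to compounds at 1 μM or BDNF 500 ng/mL as control. Dead cells stained with CellTox Green and total cells with Hoechst 33342, imaged by microscopy. CellTox-positive counts normalised to total cells per image.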

SMILES: C[C@]12CC[C@H](O)CC1=CC[C@@H]1[C@@H]2CC[C@@]2(C)[C@H]1CC[C@@]21CC=C(Cn2cc(Cc3ccccc3)nn2)CO1 [ENT-A055, (3S,17R)-5′-[(4-benzyl-1H-1,2,3-triazol-1-yl)methyl]-3′,6′-dihydrospiro[5-androstene-17,2′-pyran]-3-ol]
- protection of PC12 cells from serum deprivation-induced cell death (CellTox) (PC12 cells): without showing any antiapoptotic activity in PC12 cells
- protection of NIH-3T3-TrkB cells from serum deprivation-induced cell death (CellTox) [1]: significantly reduce cell death levels compared to the serum-free control, comparable to the BDNF action
